From patent publication US9365583B2, “Substituted pyrazoles and uses thereof” (Genentech, Inc., priority 2013, dated 2016)

Target: T1, N-terminally GST-tagged DLK (catalytic domain amino acid 1-520) (Homo sapiens, UniProt Q12852)
T1 construct: N-terminally GST-tagged DLK (catalytic domain amino acid 1-520); purchased Carna Bioscience
T1 sequence (Q12852 1-520): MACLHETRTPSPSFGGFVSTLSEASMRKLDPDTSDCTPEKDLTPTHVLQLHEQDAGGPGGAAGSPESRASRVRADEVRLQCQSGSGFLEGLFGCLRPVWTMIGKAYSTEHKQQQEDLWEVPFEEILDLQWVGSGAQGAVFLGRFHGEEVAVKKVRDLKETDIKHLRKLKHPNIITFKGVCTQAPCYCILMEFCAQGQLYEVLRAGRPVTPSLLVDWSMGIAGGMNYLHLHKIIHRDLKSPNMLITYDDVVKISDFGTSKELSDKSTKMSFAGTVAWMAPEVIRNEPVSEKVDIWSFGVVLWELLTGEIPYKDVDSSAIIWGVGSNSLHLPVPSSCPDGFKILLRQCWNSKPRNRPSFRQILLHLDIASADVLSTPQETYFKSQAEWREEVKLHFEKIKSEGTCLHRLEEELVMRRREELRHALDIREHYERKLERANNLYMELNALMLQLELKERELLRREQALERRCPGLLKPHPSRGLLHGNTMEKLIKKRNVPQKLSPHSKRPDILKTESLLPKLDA
Experiment: DLK TR-FRET inhibition assay
Assay type: biochemical
Conditions: 5 nM GST-DLK, 40 nM HIS-MKK4 K131M substrate, 30 μM ATP, 60 minutes at ambient temperature
Method: DLK TR-FRET inhibition assay: DLK kinase reactions (20 μL) containing 5 nM N-terminally GST-tagged DLK (catalytic domain amino acid 1-520) (Carna Bioscience), 40 nM N-terminally HIS-tagged MKK4 K131M substrate, and 30 μM ATP in kinase reaction buffer (50 mM HEPES, pH 7.5, 0.01% Triton X-100, 0.01% Bovine γ-Globulins, 2 mM DTT, 10 mM MgCl2 and 1 mM EGTA), and testing compound 1:3 serial diluted starting at 20 uM were incubated at ambient temperature for 60 minutes in 384 well OptiPlate (Perkin Elmer). To quench kinase reactions and detect phosphorylated MKK4, 15 μL of TR-FRET antibody mixture containing 2 nM anti-phosphorylated MKK4 labeled with Europium cryptate (Cisbio) and 23 nM anti-HIS labeled with D2 (Cisbio) in detection buffer (25 mM Tris pH 7.5, 100 mM NaCl, 100 mM EDTA, 0.01% Tween-20, and 200 mM KF) was added to the reaction mixture. The detection mixture was incubated for 3 hours at ambient temperature and the TR-FRET was detected with an EnVision multilabel plate reader (Perkin-Elmer) using the LANCE/DELFIA Dual Enh label from Perkin-Elmer (excitation filter: UV2 (TRF) 320 and emission filters: APC 665 and Europium 615).

SMILES | Ki [nM]
CC(C)n1nc(-c2cnc(N)c(C(F)(F)F)c2)cc1[C@H]1[C@@H]2C[C@H](N3CCC3)C[C@@H]21 [compound 30, 5-(5-((1R,3r,5S,6r)-3-(azetidin-1-yl)bicyclo[3.1.0]hexan-6-yl)-1-isopropyl-1H-pyrazol-3-yl)-3-(trifluoromethyl)pyridin-2-amine] | 3.59
CC(C)n1nc(-c2cnc3cnn([C@H](C)c4ccccn4)c3c2)cc1[C@H]1[C@@H]2C[C@@H](N3CCOCC3)C[C@@H]21 [compound 31, 4-((1R,3S,5S,6r)-6-(1-isopropyl-3-(1-((R)-1-(pyridin-2-yl)ethyl)-1H-pyrazolo[4,3-b]pyridin-6-yl)-1H-pyrazol-5-yl)bicyclo[3.1.0]hexan-3-yl)morpholine] | 79.4
CC(C)n1nc(-c2cnc3cnn([C@@H](C)c4ccccn4)c3c2)cc1[C@H]1[C@@H]2C[C@@H](N3CCOCC3)C[C@@H]21 [compound 32, 4-((1R,3R,5S,6r)-6-(1-isopropyl-3-(1-((S)-1-(pyridin-2-yl)ethyl)-1H-pyrazolo[4,3-b]pyridin-6-yl)-1H-pyrazol-5-yl)bicyclo[3.1.0]hexan-3-yl)morpholine] | 4.08
CC(C)n1nc(-c2cnc3cnn([C@H](C)c4ccccn4)c3c2)cc1[C@H]1[C@@H]2C[C@H](N3CCOCC3)C[C@@H]21 [compound 33, 4-((1R3R,5S,6r)-6-(1-isopropyl-3-(1-((R)-1-(pyridin-2-yl)ethyl)-1H-pyrazolo[4,3-b]pyridin-6-yl)-1H-pyrazol-5-yl)bicyclo[3.10]hexan-3-yl)morpholine] | 123
CC(C)n1nc(-c2cnc3cnn([C@@H](C)c4ccccn4)c3c2)cc1[C@H]1[C@@H]2C[C@H](N3CCOCC3)C[C@@H]21 [compound 34, 4-((1R,3S,5S,6r)-6-(1-isopropyl-3-(1-((S)-1-(pyridin-2-yl)ethyl)-1H-pyrazolo[4,3-b]pyridin-6-yl)-1H-pyrazol-5-yl)bicyclo[3.1.0]hexan-3-yl)morpholine] | 4.19
CC(C)n1nc(-c2cnc(N)c(C(F)(F)F)c2)cc1[C@H]1[C@@H]2C[C@H](N3CCCC3=O)C[C@@H]21 [compound 35, 1-((1R,3r,5S,6r)-6-(3-(6-amino-5-(trifluoromethyl)pyridin-3-yl)-1-isopropyl-1H-pyrazol-5-yl)bicyclo[3.1.0]hexan-3-yl)pyrrolidin-2-one] | 3
CC(C)n1nc(-c2cnc(N)c(C(F)(F)F)c2)cc1[C@H]1[C@@H]2C[C@H](N3CC(F)C3)C[C@@H]21 [compound 36, 5-(5-((1R,3r,5S,6r)-3-(3-fluoro-azetidin-1-yl)bicyclo[3.1.0]hexan-6-yl)-1-isopropyl-1H-pyrazol-3-yl)-3-(trifluoromethyl)pyridin-2-amine] | 1.53
CC(C)n1nc(-c2cnc(N)c(C(F)(F)F)c2)cc1[C@H]1[C@@H]2C[C@@H](N3CC(F)C3)C[C@@H]21 [compound 37, 5-(5-((1R,3s,5S,6r)-3-(3-fluoro-azetidin-1-yl)bicyclo[3.1.0]hexan-6-yl)-1-isopropyl-1H-pyrazol-3-yl)-3-(trifluoromethyl)pyridin-2-amine] | 2.37
COC1CN([C@@H]2C[C@@H]3[C@H](C2)[C@H]3c2cc(-c3cnc(N)c(OC(F)(F)F)c3)nn2C(C)C)C1 [compound 38, 5-(1-isopropyl-5-((1R,3s,5S,6r)-3-(3-methoxyazetidin-1-yl)bicyclo[3.1.0]hexan-6-yl)-1H-pyrazol-3-yl)-3-(trifluoromethoxy) pyridin-2-amine] | 1.45
COC1CN([C@H]2C[C@@H]3[C@H](C2)[C@H]3c2cc(-c3cnc(N)c(OC(F)(F)F)c3)nn2C(C)C)C1 [compound 39, 5-(1-isopropyl-5-((1R,3r,5S,6r)-3-(3-methoxyazetidin-1-yl)bicyclo[3.1.0]hexan-6-yl)-1H-pyrazol-3-yl)-3-(trifluoromethoxy) pyridin-2-amine] | 2.06
CC(C)n1nc(-c2cnc(N)c(OC(F)F)c2)cc1[C@H]1[C@@H]2C[C@@H](N3CC(F)(F)C3)C[C@@H]21 [compound 42, 5-(5-((1R,3s,5S,6r)-3-(3,3-difluoroazetidin-1-yl)bicyclo[3.1.0]hexan-6-yl)-1-isopropyl-1H-pyrazol-3-yl)-3-(difluoromethoxy) pyridin-2-amine] | 4.53
CC(C)n1nc(-c2cnc(N)c(OC(F)F)c2)cc1[C@H]1[C@@H]2C[C@H](N3CC(F)(F)C3)C[C@@H]21 [compound 43, 5-(5-((1R,3r,5S,6r)-3-(3,3-difluoro-azetidin-1-yl)bicyclo[3.1.0]hexan-6-yl)-1-isopropyl-1H-pyrazol-3-yl)-3-(difluoromethoxy) pyridin-2-amine] | 3.05
CC(C)n1nc(-c2cnc(N)c(C(F)(F)F)c2)cc1[C@H]1[C@@H]2C[C@@H](N3CCCC3=O)C[C@@H]21 [compound 44, 1-((1R,3s,5S,6r)-6-(3-(6-amino-5-(trifluoromethyl)pyridin-3-yl)-1-isopropyl-1H-pyrazol-5-yl)bicyclo[3.1.0]hexan-3-yl)pyrrolidin-2-one] | 8.2
CC(C)n1nc(-c2cnc(N)c(C(F)(F)F)c2)cc1[C@H]1[C@@H]2C[C@H](N3CCOC[C@H]3C)C[C@@H]21 [compound 45, 5-(1-isopropyl-5-((1R,3r,5S,6R)-3-((R)-3-methylmorpholino)bicyclo[3.1.0]hexan-6-yl)-1H-pyrazol-3-yl)-3-(trifluoromethyl) pyridin-2-amine] | 3.3
CC(C)n1nc(-c2cnc(N)c(C(F)(F)F)c2)cc1[C@H]1[C@@H]2C[C@H](N3CCOC[C@H]3C)C[C@@H]21 [compound 46, 5-(1-isopropyl-5-((1R,3s,5S,6R)-3-((R)-3-methylmorpholino)bicyclo[3.1.0]hexan-6-yl)-1H-pyrazol-3-yl)-3-(trifluoromethyl) pyridin-2-amine] | 1.85
CC(C)n1nc(-c2cnc(N)c(OC(F)(F)F)c2)cc1[C@H]1[C@@H]2C[C@H](N(C)C3COC3)C[C@@H]21 [compound 47, 5-(1-isopropyl-5-((1R,3r,5S,6r)-3-(methyl(oxetan-3-yl)amino)bicyclo[3.1.0]hexan-6-yl)-1H-pyrazol-3-yl)-3-(trifluoromethoxy) pyridin-2-amine] | 4.11
CC(C)n1nc(-c2cnc(N)c(OC(F)(F)F)c2)cc1[C@H]1[C@@H]2C[C@@H](N(C)C3COC3)C[C@@H]21 [compound 48, 5-(1-isopropyl-5-((1R,3s,5S,6r)-3-(methyl(oxetan-3-yl)amino)bicyclo[3.1,0]hexan-6-yl)-1H-pyrazol-3-yl)-3-(trifluoromethoxy) pyridin-2-amine] | 3.1
CC(C)n1nc(-c2cnc(N)c(C(F)(F)F)c2)cc1[C@H]1[C@@H]2C[C@H](N(C)C3COC3)C[C@@H]21 [compound 49, 5-(1-isopropyl-5-((1R,3r,5S,6r)-3-(methyl(oxetan-3-yl)amino)bicyclo[3.1.0]hexan-6-yl)-1H-pyrazol-3-yl)-3-(trifluoromethyl) pyridin-2-amine] | 4.2
CC(C)n1nc(-c2cnc(N)c(C(F)(F)F)c2)cc1[C@H]1[C@@H]2C[C@@H](N(C)C3COC3)C[C@@H]21 [compound 50, 5-(1-isopropyl-5-((1R,3s,5S,6r)-3-(methyl(oxetan-3-yl)amino)bicyclo[3.1.0]hexan-6-yl)-1H-pyrazol-3-yl)-3-(trifluoromethyl) pyridin-2-amine] | 2.83
CC(C)n1nc(-c2cnc(N)c(C(F)(F)F)c2)cc1[C@H]1[C@@H]2C[C@@H](N3CC4(COC4)C3)C[C@@H]21 [compound 51, 5-(5-((1R,3s,5S,6r)-3-(2-oxa-6-azaspiro[3.3]heptan-6-yl)bicyclo [3.1.0]hexan-6-yl)-1-isopropyl-1H-pyrazol-3-yl)-3-(trifluoro-methyl)pyridin-2-amine] | 3.55
CC(C)n1nc(-c2cnc(N)c(C(F)(F)F)c2)cc1[C@H]1[C@@H]2C[C@H](N3CCOCC3)C[C@@H]21 [compound 52, 5-(1-isopropyl-5-((1R,3r,5S,6r)-3-morpholinobicyclo[3.1.0]hexan-6-yl)-1H-pyrazol-3-yl)-3-(trifluoromethyl)pyridin-2-amine] | 3.97
CC(C)n1nc(-c2cnc(N)c(OC(F)(F)F)c2)cc1[C@H]1[C@@H]2C[C@H](N3CC(F)(F)C3)C[C@@H]21 [compound 53, 5-(5-((1R,3r,5S,6r)-3-(3,3-difluoro-azetidin-1-yl)bicyclo[3.1.0]hexan-6-yl)-1-isopropyl-1H-pyrazol-3-yl)-3-(trifluoromethoxy) pyridin-2-amine] | 4.72
